Ends that are not written are not given here.
What was measured:
human Mfn2 = target: T1, human Mfn2 (Homo sapiens, UniProt O95140); assay: Carboxypeptidase protection assay on mitochondrial membranes; format: biochemical; parameters: from tissue; host or cells: mitochondrial membranes of transgenic mouse hearts overexpressing human Mfn2; settings: 200 ng/ml carboxypeptidases A and B; mouse heart mitochondrial membranes overexpressing human Mfn2
T1 sequence (O95140 1-757): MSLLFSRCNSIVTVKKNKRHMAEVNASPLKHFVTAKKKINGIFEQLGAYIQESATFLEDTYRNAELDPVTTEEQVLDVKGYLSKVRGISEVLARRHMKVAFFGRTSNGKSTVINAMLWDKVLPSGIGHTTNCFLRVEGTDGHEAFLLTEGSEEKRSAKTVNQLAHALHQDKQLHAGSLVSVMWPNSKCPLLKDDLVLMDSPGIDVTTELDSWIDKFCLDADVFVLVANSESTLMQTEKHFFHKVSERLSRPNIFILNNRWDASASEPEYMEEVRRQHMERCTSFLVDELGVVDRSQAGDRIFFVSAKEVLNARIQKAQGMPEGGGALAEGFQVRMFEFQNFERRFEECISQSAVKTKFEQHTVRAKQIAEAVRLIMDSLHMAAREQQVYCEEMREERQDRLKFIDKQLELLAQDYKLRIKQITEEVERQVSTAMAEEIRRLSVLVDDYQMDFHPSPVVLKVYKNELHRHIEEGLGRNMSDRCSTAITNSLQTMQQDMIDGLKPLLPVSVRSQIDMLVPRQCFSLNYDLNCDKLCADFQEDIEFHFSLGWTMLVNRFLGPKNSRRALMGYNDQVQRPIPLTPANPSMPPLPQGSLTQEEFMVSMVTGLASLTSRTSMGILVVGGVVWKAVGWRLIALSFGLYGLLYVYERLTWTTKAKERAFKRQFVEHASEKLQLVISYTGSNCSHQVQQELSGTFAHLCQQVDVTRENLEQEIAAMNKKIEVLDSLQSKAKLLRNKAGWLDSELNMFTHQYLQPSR
Method: Mitochondrial membranes were prepared (Song et al., 2015, Cell Metab, 21:273-285) from mouse hearts overexpressing human Mfn2 (Gong et al., 2015, Science, 350:aad2459) and digested with 200 ng/ml each carboxypeptidases A and B (Sigma-Aldrich) for increasing times at room temperature, followed by immunoblotting using an antibody (Abcam ab56889) specific to hMfn2 HR2.

Mfn1/Mfn2 DKO MEFs = assay: Confocal localization of FITC-labeled TAT-minipeptides in mitofusin null cells; format: cell-based, murine; settings: MEFs completely lacking mitofusins
Method: (§1) The above results support the premise that TAT-conjugated Mfn2 minipeptides affect mitochondrial fusion by modulating Mfn1 and Mfn2 conformation according to the dynamic structure model depicted in FIGS. 3A-3C. Additional studies were performed to validate this mechanism of action using the minipeptide-Mfn2 binding assay procedure. Confocal localization of FITC-labeled TAT-minipeptides in WT MEFs and Mfn null MEFs (Mfn1/Mfn2 DKO) was used for analysis of interaction between the minipeptides and mitochondrial mitofusins. Mitochondria were stained with MitoTracker Orange; nucleus was stained with Blue Hoechst. Line-scans were generated for the confocal photographs.
(§2) Thus, cell-internalized TAT-conjugated Mfn2 HR1 minipeptides bind specifically to mitochondrial mitofusins.

Mfn2 T105M fl/st MEFs = assay: TAT-minipeptides in MEFs expressing CMT2A mutant hMfn2 T105M; format: cell-based, murine; settings: for mitochondrial fragmentation / dysmorphology / mitochondrial polarization / depolarization: Mfn2 T105M MEFs, 72 hours after adeno-Cre, 1 μM
Method: Wild-type murine embryonic fibroblast cells (MEFs) were prepared from E10.5 C57/b6 mouse embryos. SV-40 T antigen-immortalized Mfn1 null (“Mfn1 KO,” ATCC No. CRL-2992), Mfn2 null (“Mfn2 KO,” ATCC No. CRL-2993) and Mfn1/Mfn2 double null MEFs (“Mfn DKO,” ATCC No. CRL-2994) were purchased from ATCC. MEFs conditionally expressing the human Mfn2 T105M mutation were prepared from E10.5 embryos of C57BL/6-Gt(ROSA)26Sor[tm1(CAG-MFN2*T105M)Dple]/J mice purchased from The Jackson Laboratory (Stock No: 025322). MEFs were maintained in DMEM containing 4.5 g/L glucose (or galactose when specified) supplemented with 10% fetal bovine serum, 1× nonessential amino acids, 2 mM L-glutamine, 100 U/ml penicillin and 100 μg/ml streptomycin.
Models cells harboring a Cre recombinase-inducible mutant human Mfn2 containing the T105M mutation were used (FIG. 13A) because they recapitulate fusion defects caused by compound functional null Mfn2 mutants in […] CMT2A. A time course study of mitochondrial fragmentation after adeno-Cre mediated induction of Mfn2 T105M was performed and the results are shown in FIG. 13B.
It was considered that mitochondrial dysmorphology created by genetic Mfn2 dysfunction in CMT2A might be improved by TAT-367-384Gly if endogenous normal Mfn1 or Mfn2 proteins could be compelled into their active unfolded conformations, thus overcoming dominant inhibition by GTPase Mfn2 mutants. This was tested in MEFs expressing the CMT2A-causal mutant hMfn2 T105M (Calvo et al., 2009, Arch Neurol, 66:1511-1516; Detmer et al., 2008, Hum Mol Genet, 17:367-375) as a conditional flox/stop (fl/st) transgene. […] Parallel adenoviral expression of WT Mfn2 at more than twice the levels of Mfn2 T105M (5-fold vs 2-fold) provoked neither mitochondrial nor cellular toxicity (data not shown). Scale bars are 10 microns. N=3 or 4; *=P<0.05 vs. control, #=P<0.05 vs. Ad-Cre (ANOVA).

[1] = system: mitochondrial mitofusins in WT MEFs; assay: Confocal localization of FITC-labeled TAT-minipeptides; format: cell-based, murine
Method: as §1, §2

| Sequence | carboxyl terminal-directed proteolytic digestion of Mfn2 (exposure of C-terminal HR2 domain) (human Mfn2) | localization of FITC-labeled TAT-peptide to mitochondria (Mfn1/Mfn2 DKO MEFs) | mitochondrial fragmentation / dysmorphology (Mfn2 T105M fl/st MEFs) | mitochondrial polarization / depolarization (Mfn2 T105M fl/st MEFs) | localization of FITC-labeled TAT-peptide to mitochondria [1] | mitochondrial clumping (Mfn2 T105M fl/st MEFs; cells expressing Mfn2 T105M) |
| --- | --- | --- | --- | --- | --- | --- |
| QDRLKFIDKQGELLAQDYKLRGGYGRKKRRQRRR [TAT-398-418Gly] | had the opposite effect | not to MEFs completely lacking mitofusins | aggravated mitochondrial dysmorphology | exacerbated mitochondrial depolarization | decorated mitochondria |  |
| QIAEAVRGIMDSLHMAARGGYGRKKRRQRRR [TAT-367-384Gly] | accelerated carboxyl terminal-directed proteolytic digestion of Mfn2 | not to MEFs completely lacking mitofusins | rapidly reversed mitochondrial fragmentation | improved mitochondrial polarization | decorated mitochondria | corrected mitochondrial clumping |
